Assay results taken from US20230226072A1 (priority 2020, published 2023).

Columns and labels:
Influenza A N1H1 = assay: In vivo antiviral efficacy in Balb/c mice, lung virus titer by TCID50 assay
Protocol: Mice received a daily MB-dose of 5 mg/kg based on a daily drinking volume of ˜5-6 ml and a body weight of 25-35 g. The control group received drinking water with saccharin but without methylene blue.
Mice were euthanized and lungs were removed on day 3 post challenge with influenza H1N1 virus. These tissue samples were stored at <−60° C. until they were transferred into homogenization tubes containing 1 ml cell medium supplemented with antibiotics. The lungs were homogenized two times at 5000 rpm for twenty seconds with 10 seconds pause between the intervals with a tissue homogenizer. The infectious H1N1 virus titer in homogenized lung samples was determined by a TCID50 assay performed by titration on Madin-Darby Canine Kidney (MDCK) cells as described above.

[1] = in vivo; cited from earlier work

SMILES | viricidal efficacy, lung virus titer (TCID50 assay) (Influenza A N1H1; prophylactic application, 5 mg/kg daily in drinking water from day 0, challenge day 10, lungs 3 days later) | viricidal efficacy, lung virus titer (TCID50 assay) (Influenza A N1H1; therapeutic application, 5 mg/kg daily in drinking water from day 11, challenge day 10) | initial half-life [1] | terminal half-life [1]
CN(C)c1ccc2nc3ccc(=[N+](C)C)cc-3sc2c1.[Cl-] [methylene blue, [7-(dimethylamino)phenothiazin-3-ylidene]-dimethylazanium; chloride] | significant viricidal efficacy | significant viricidal efficacy |  | 
Cc1cc2nc3c(=O)[nH]c(=O)nc-3n(C[C@H](O)[C@H](O)[C@H](O)CO)c2cc1C [riboflavin, 7,8-dimethyl-10-[(2S,3S,4R)-2,3,4,5-tetrahydroxypentyl]benzo[g]pteridine-2,4-dione] |  |  | 1.4 h | 14 h
